According to patent US8404665B2, “In vivo use of glutathione S-transferase activated nitric oxide donors” (University of Utah Research Foundation, priority 2002, dated 2013):

Columns and labels:
HL-60 cells [1] = test: Apoptosis in HL-60 cells by flow cytometry (sub-G0 fraction); type: cell-based, human; settings: for percentage of apoptotic cells (sub-G0 fraction): three days post-addition, control 7 percent
Method: Cell Lines and Culture Conditions. HL-60, DLD1, and U937 cells were obtained from ATCC (Rockville, Md.). Meth A cells were from Dr. Wolfram Samlowski (University of Utah, Salt Lake City, Utah). The PPC-1 cell line was provided by Dr. Graeme Bolger (University of Alabama, Birmingham, Ala.). For the cell growth and apoptosis experiments, cells were cultured at a density of 150,000 cells/ml in RPMI-1640 with 10% fetal bovine serum at 37° C. in a 5% CO2 humidified atmosphere. Agents were added at the indicated concentrations 24 h after culture initiation. At the indicated time intervals, cells were harvested and washed twice in phosphate buffered saline (PBS) prior to processing for analysis of growth, differentiation, and apoptosis.
Cell Growth, Differentiation and Apoptosis Assays. The number of viable cells was determined using the MTT assay according to the manufacturer's protocol (Promega, Madison, Wis.) or using a Coulter counter. Briefly, a MTT assay is an analytical technique that uses the dye dimethylthiazolyl-diphenyltetrazolium (MTT) which turns from yellow to brownish-purple as it is reduced in the mitochondria of living cells. The assay is useful in calorimetric quantitation of cell viability and proliferation. In contrast, cell differentiation was evaluated using Wright and Non-Specific Esterase (NSE) staining of cells collected on microscope slides by cytospin as previously described (Magrinat, G. et al. (1992) Blood 80: 1880-1884). Apoptosis was assayed by flow cytometry and by determining DNA fragmentation using agarose gel electrophoresis as previously described (Shami, P. J. et al. (1998) Leukemia 12: 1461-1466). For the flow cytometry assay, we used the propidium iodide staining method of Nicoletti et al. (Nicoletti, I. et al. (1991) J. Immunol. Methods 139: 271-279).
To determine if JS-K could induce apoptosis in leukemia cells, it was added to HL-60 cells at concentrations of 0.5 and 1.0 μM. Three days post-addition, the percentage of apoptotic cells was determined by measuring the number of cells in the sub-G0 fraction of the cell cycle using flow cytometry. […]

Hydrolysis of JS-K = type: physicochemical
Method: For increased JS-K consumption rate at an initial concentration of 50 uM in 0.1 M phosphate (pH=7.4) at 37° C. as a function of increasing GSH concentration. The value of k1 obtained from the intercept appeared to be in statistical agreement with the rate constant for JS-K hydrolysis (1×10^−6 s^−1) measured separately in the absence of GSH. The small amount of the hydrolysis product (2,4-dinitrophenol) (data not shown) was apparently formed in the dimethyl sulfoxide stock solution, which in this case had been stored in the refrigerator with intermittent use during several weeks.

HL-60 cells [2] = test: Subcutaneous HL-60 tumor implants in NOD/SCID mice; type: in vivo
Method: To study the in vivo antineoplastic potency of JS-K, NOD/SCID mice were injected in the flanks subcutaneously with HL-60 or PPC-1 cells (2.5×10^6 cells per flank). When subcutaneous tumors were palpable, treatment with JS-K or an equal volume of vehicle (20% dimethyl sulfoxide in PBS) was started using the indicated doses and route. Tumor size was measured daily or every other day using a Vernier caliper. Tumor volume was calculated using the formula: width×length×[(width+length)/2]×0.5236. Fifteen to 20 days after tumor cell implantation, animals were sacrificed by CO2 inhalation and tumors were collected for histochemical analysis.
Histological Analysis of Tumors. After sacrifice, subcutaneous tumors were dissected out, fixed in 10% formaldehyde and imbedded in paraffin. Four-um sections were cut and stained with Hematoxylin and Eosin.
To determine the in vivo therapeutic efficacy of JS-K, NOD/SCID mice were injected subcutaneously with 5×10^6 HL-60 cells in the flanks. When tumors were measurable (4 to 5 days after leukemia cell inoculation), the mice were divided into 2 groups that received either vehicle or JS-K at a dose of 4 μmol/kg administered intravenously 3 times per week. After seventeen days from the leukemia cell inoculation there appeared to be a significant difference in tumor volume between vehicle and JS-K treated animals: tumor volume was 9.51±1.22 and 4.15±1.06 cm^3 in vehicle and JS-K treated animals, respectively.

[3] = 4 μmol/kg i.v. 3 times per week

CCOC(=O)N1CCN(/[N+]([O-])=N/Oc2ccc([N+](=O)[O-])cc2[N+](=O)[O-])CC1 [JS-K, O^2-(2,4-dinitrophenyl) 1-[(4-ethoxycarbonyl)piperazin-1-yl]diazen-1-ium-1,2-diolate]
percentage of apoptotic cells (sub-G0 fraction) (HL-60 cells [1]; 0.5 μM): 27±3%
percentage of apoptotic cells (sub-G0 fraction) (HL-60 cells [1]; 1.0 μM): 43±2%
percentage of apoptotic cells (HL-60 cells [1]; HL-60, flow cytometry, co-administration of C-VAD-FMK and JS-K, p=0.44 vs untreated): 2.65+/−0.28%
resistance to hydrolysis (Hydrolysis of JS-K; 0.1 M phosphate pH 7.4, 37° C.): resistant to simple hydrolysis
rate constant for JS-K hydrolysis (Hydrolysis of JS-K; measured separately in the absence of GSH, pH 7.4, 37° C.): 1e-06 s⁻¹
hydrolysis (Hydrolysis of JS-K; pH=12): much more facile
leukemia implant growth in vivo (HL-60 cells [2]; [3]): significant delay in leukemia implant growth in vivo
tumor histology (necrosis) at experiment termination (HL-60 cells [2]; [3]): extensive necrosis
tumor volume (HL-60 cells [2]; 4 μmol/kg i.v. 3 times per week, seventeen days from inoculation, vehicle 9.51±1.22): 4.15±1.06 cm^3
cell necrosis in tumors (histologic analysis) (HL-60 cells [2]; controls ˜10%): more than 50%
reduction in tumor volume (HL-60 cells [2]; sixteen days after starting therapy, versus control): more than 50%
average tumor volume (HL-60 cells [2]; sixteen days after starting therapy, control 8.34±0.72, P=0.039): 3.13±1.14 cm^3
